Source: ChEMBL document CHEMBL1139759, “Discovery and SAR studies of novel GlyT1 inhibitors” (Bioorg Med Chem Lett, 2007)

Test system: Rattus norvegicus
Experiment: Increase in glycine level of Sprague-Dawley rat cerebrospinal fluid at 30 mg/kg, sc
Assay type: functional
Conditions: route subcutaneous

| SMILES | Activity |
| --- | --- |
| CN(CC[C@@H](Oc1ccc(-c2ccccc2)cc1)c1ccc(F)cc1)CC(=O)O | 204% |
| CN(CCOc1ccc(-c2ccccc2)cc1-c1cccs1)CC(=O)O | 196% |
| CN(CCOc1ccc(-c2ccccc2)cc1C(=O)c1cccs1)CC(=O)O | 114% |
| CN(CCOc1ccc(-c2ccccc2)cc1-c1ccccc1Cl)CC(=O)O | 155% |

Target: T1, Sodium- and chloride-dependent glycine transporter 2 (Homo sapiens, UniProt Q9Y345)
T1 sequence (Q9Y345 whole entry): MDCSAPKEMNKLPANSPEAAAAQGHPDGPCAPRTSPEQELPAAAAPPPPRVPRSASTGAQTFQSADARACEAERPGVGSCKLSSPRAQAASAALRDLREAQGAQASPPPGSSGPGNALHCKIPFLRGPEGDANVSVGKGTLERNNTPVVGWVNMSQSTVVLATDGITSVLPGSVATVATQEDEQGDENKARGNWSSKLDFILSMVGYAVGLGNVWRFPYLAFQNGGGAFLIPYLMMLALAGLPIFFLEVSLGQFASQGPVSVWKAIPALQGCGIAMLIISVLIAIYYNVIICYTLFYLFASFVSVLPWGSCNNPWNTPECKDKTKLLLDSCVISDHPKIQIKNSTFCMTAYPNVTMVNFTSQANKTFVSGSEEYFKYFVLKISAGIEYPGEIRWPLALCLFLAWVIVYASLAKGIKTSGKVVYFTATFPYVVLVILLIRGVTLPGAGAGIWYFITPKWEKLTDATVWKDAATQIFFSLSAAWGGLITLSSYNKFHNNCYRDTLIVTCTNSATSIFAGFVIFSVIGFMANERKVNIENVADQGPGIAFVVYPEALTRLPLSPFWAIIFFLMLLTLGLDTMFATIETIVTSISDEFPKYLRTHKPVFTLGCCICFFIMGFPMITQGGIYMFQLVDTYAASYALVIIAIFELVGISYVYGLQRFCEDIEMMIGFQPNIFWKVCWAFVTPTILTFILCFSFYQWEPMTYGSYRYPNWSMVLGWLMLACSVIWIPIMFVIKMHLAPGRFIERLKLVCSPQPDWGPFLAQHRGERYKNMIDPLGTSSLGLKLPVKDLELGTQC
Experiment: Inhibition of [14C]glycine reuptake at human GlyT2 expressed in BE(2)-C cells
Assay type: cell-based
Conditions: not given

| SMILES | IC50 |
| --- | --- |
| CN(CC[C@@H](Oc1ccc(-c2ccccc2)cc1)c1ccc(F)cc1)CC(=O)O | > 30000 nM |
| CN(CCOc1ccc(-c2ccc3c(c2)OCO3)cc1-c1ccccc1Cl)CC(=O)O | > 30000 nM |
| Cc1ccccc1-c1cc(-c2ccccc2)ccc1OCCN(C)CC(=O)O | > 30000 nM |
| COc1ccccc1-c1cc(-c2ccccc2)ccc1OCCN(C)CC(=O)O | > 30000 nM |
| CN(CCOc1ccc(-c2ccccc2)cc1-c1ccsc1)CC(=O)O | > 30000 nM |
| CN(CCOc1ccc(-c2ccccc2Cl)cc1C(=O)c1cccs1)CC(=O)O | > 30000 nM |
| CN(CCOc1ccc(-c2cccc(Cl)c2)cc1C(=O)c1cccs1)CC(=O)O | > 30000 nM |
| Cc1ccccc1-c1ccc(OCCN(C)CC(=O)O)c(C(=O)c2cccs2)c1 | > 30000 nM |
| Cc1cccc(-c2ccc(OCCN(C)CC(=O)O)c(C(=O)c3cccs3)c2)c1 | > 30000 nM |
| Cc1ccc(-c2ccc(OCCN(C)CC(=O)O)c(C(=O)c3cccs3)c2)cc1 | > 30000 nM |
| COc1ccc(-c2ccc(OCCN(C)CC(=O)O)c(C(=O)c3cccs3)c2)cc1 | > 30000 nM |
| Cc1ccc(-c2ccc(OCCN(C)CC(=O)O)c(C(=O)c3cccs3)c2)cc1C | > 30000 nM |
| CN(CCOc1ccc(-c2ccccc2)cc1-c1nccs1)CC(=O)O | > 30000 nM |
| COc1ccc(-c2ccc(OCCN(C)CC(=O)O)c(C(=O)c3cccs3)c2)cc1OC | > 30000 nM |
| CN(CCOc1ccc(-c2ccc3c(c2)OCO3)cc1C(=O)c1cccs1)CC(=O)O | > 30000 nM |
| CN(CCOc1ccc(-c2ccccc2)cc1-c1cccc2ccccc12)CC(=O)O | > 30000 nM |
| CN(CCOc1ccc(-c2ccccc2)cc1Cc1cccs1)CC(=O)O | > 30000 nM |
| CN(CCOc1ccc(-c2ccccc2)cc1-c1cccs1)CC(=O)O | > 30000 nM |
| CN(CCOc1ccc(-c2ccccc2)cc1Cc1ccccc1)CC(=O)O | > 30000 nM |
| CN(CCOc1ccc(-c2ccccc2)cc1-c1ccccc1)CC(=O)O | > 30000 nM |

| SMILES | IC50 |
| --- | --- |
| CN(CCOc1ccc(-c2ccccc2)cc1C(=O)C1CCCCC1)CC(=O)O | > 30000 nM |
| CN(CCOc1ccc(-c2ccccc2)cc1C1CCCCC1)CC(=O)O | > 30000 nM |
| CN(CCOc1ccc(-c2ccccc2)cc1-c1cccc(Cl)c1)CC(=O)O | > 30000 nM |
| CN(CCOc1ccc(-c2ccccc2)cc1-c1ccccc1F)CC(=O)O | > 30000 nM |
| COc1ccc(-c2ccc(OCCN(C)CC(=O)O)c(-c3ccccc3Cl)c2)cc1C | > 30000 nM |
| CN(CCOc1ccc(-c2ccc3c(c2)OCCO3)cc1-c1ccccc1Cl)CC(=O)O | > 30000 nM |
| CN(CCOc1ccc(-c2ccc3c(c2)CCO3)cc1-c1cccs1)CC(=O)O | > 30000 nM |
| CN(CCOc1ccc(-c2ccccc2)cc1-c1ccc(Cl)cc1)CC(=O)O | > 30000 nM |
| CN(CCOc1ccc(-c2ccc3c(c2)CCO3)cc1-c1ccccc1Cl)CC(=O)O | > 30000 nM |
| CN(CCOc1ccc(-c2ccc(Cl)cc2)cc1C(=O)c1cccs1)CC(=O)O | > 30000 nM |
| COc1cccc(-c2ccc(OCCN(C)CC(=O)O)c(C(=O)c3cccs3)c2)c1 | > 30000 nM |
| COc1ccc(-c2ccc(OCCN(C)CC(=O)O)c(C(=O)c3cccs3)c2)cc1C | > 30000 nM |
| CN(CCOc1ccc(-c2ccccc2)cc1CC1CCCCC1)CC(=O)O | > 30000 nM |
| CN(CCOc1ccc(-c2ccccc2)cc1C(=O)c1cccs1)CC(=O)O | > 30000 nM |
| COc1ccc(-c2ccc(OCCN(C)CC(=O)O)c(-c3cccs3)c2)cc1C | > 30000 nM |
| CN(CCOc1ccc(-c2ccc3c(c2)OCO3)cc1-c1cccs1)CC(=O)O | > 30000 nM |
| CN(CCOc1ccc(C(F)(F)F)cc1C(=O)c1cccs1)CC(=O)O | > 30000 nM |
| CN(CCOc1ccc(-c2ccc3c(c2)OCCO3)cc1-c1cccs1)CC(=O)O | > 30000 nM |
| CN(CCOc1ccc(-c2ccccc2)cc1C(=O)c1ccccc1)CC(=O)O | > 30000 nM |
| CN(CCOc1ccc(-c2ccccc2)cc1-c1ccccc1Cl)CC(=O)O | > 30000 nM |

Target: T2, Sodium- and chloride-dependent glycine transporter 1 (Homo sapiens, UniProt P48067)
T2 sequence (P48067 whole entry): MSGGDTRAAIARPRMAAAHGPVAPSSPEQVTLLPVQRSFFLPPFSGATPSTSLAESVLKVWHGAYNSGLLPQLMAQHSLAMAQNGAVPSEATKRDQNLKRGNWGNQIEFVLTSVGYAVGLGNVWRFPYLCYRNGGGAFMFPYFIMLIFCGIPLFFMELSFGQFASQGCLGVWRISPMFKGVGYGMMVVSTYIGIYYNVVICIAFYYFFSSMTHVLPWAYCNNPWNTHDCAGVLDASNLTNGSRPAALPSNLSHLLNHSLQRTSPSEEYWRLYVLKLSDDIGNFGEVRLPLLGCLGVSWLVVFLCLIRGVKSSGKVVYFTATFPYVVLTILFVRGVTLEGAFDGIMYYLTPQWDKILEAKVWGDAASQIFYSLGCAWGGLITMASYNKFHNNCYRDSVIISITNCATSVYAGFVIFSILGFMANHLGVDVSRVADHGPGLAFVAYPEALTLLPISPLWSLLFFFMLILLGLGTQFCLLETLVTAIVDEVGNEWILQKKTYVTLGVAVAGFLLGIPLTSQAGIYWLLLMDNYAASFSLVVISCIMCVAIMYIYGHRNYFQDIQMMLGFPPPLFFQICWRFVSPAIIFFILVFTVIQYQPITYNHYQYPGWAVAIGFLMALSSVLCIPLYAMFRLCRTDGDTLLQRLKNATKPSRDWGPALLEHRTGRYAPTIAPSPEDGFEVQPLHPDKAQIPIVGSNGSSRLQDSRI
Experiment: Inhibition of [14C]glycine reuptake at human GlyT1 expressed in BE(2)-C cells
Assay type: cell-based
Conditions: not given

| SMILES | IC50 |
| --- | --- |
| CN(CCOc1ccc(-c2ccc3c(c2)OCO3)cc1-c1ccccc1Cl)CC(=O)O | 12 nM |
| Cc1ccccc1-c1cc(-c2ccccc2)ccc1OCCN(C)CC(=O)O | 56 nM |
| COc1ccccc1-c1cc(-c2ccccc2)ccc1OCCN(C)CC(=O)O | 351 nM |
| CN(CCOc1ccc(-c2ccccc2)cc1-c1ccsc1)CC(=O)O | 139 nM |
| CN(CCOc1ccc(-c2ccccc2Cl)cc1C(=O)c1cccs1)CC(=O)O | 175 nM |
| CN(CCOc1ccc(-c2cccc(Cl)c2)cc1C(=O)c1cccs1)CC(=O)O | 26 nM |
| Cc1ccccc1-c1ccc(OCCN(C)CC(=O)O)c(C(=O)c2cccs2)c1 | 632 nM |
| Cc1cccc(-c2ccc(OCCN(C)CC(=O)O)c(C(=O)c3cccs3)c2)c1 | 45 nM |
| Cc1ccc(-c2ccc(OCCN(C)CC(=O)O)c(C(=O)c3cccs3)c2)cc1 | 59 nM |
| COc1ccc(-c2ccc(OCCN(C)CC(=O)O)c(C(=O)c3cccs3)c2)cc1 | 27 nM |
| Cc1ccc(-c2ccc(OCCN(C)CC(=O)O)c(C(=O)c3cccs3)c2)cc1C | 76 nM |
| CN(CCOc1ccc(-c2ccccc2)cc1-c1nccs1)CC(=O)O | 957 nM |
| COc1ccc(-c2ccc(OCCN(C)CC(=O)O)c(C(=O)c3cccs3)c2)cc1OC | 834 nM |
| CN(CCOc1ccc(-c2ccc3c(c2)OCO3)cc1C(=O)c1cccs1)CC(=O)O | 19 nM |
| CN(CCOc1ccc(-c2ccccc2)cc1-c1cccc2ccccc12)CC(=O)O | 496 nM |
| CN(CCOc1ccc(-c2ccccc2)cc1Cc1cccs1)CC(=O)O | 40 nM |
| CN(CCOc1ccc(-c2ccccc2)cc1-c1cccs1)CC(=O)O | 70 nM |
| CN(CCOc1ccc(-c2ccccc2)cc1Cc1ccccc1)CC(=O)O | 85 nM |
| CN(CCOc1ccc(-c2ccccc2)cc1-c1ccccc1)CC(=O)O | 229 nM |
| CN(CCOc1ccc(-c2ccccc2)cc1C(=O)C1CCCCC1)CC(=O)O | 70 nM |

| SMILES | IC50 |
| --- | --- |
| CN(CCOc1ccc(-c2ccccc2)cc1C1CCCCC1)CC(=O)O | 251 nM |
| CN(CCOc1ccc(-c2ccccc2)cc1-c1cccc(Cl)c1)CC(=O)O | 674 nM |
| CN(CCOc1ccc(-c2ccccc2)cc1-c1ccccc1F)CC(=O)O | 108 nM |
| COc1ccc(-c2ccc(OCCN(C)CC(=O)O)c(-c3ccccc3Cl)c2)cc1C | 28 nM |
| CN(CCOc1ccc(-c2ccc3c(c2)OCCO3)cc1-c1ccccc1Cl)CC(=O)O | 14 nM |
| CN(CCOc1ccc(-c2ccc3c(c2)CCO3)cc1-c1cccs1)CC(=O)O | 17 nM |
| CN(CCOc1ccc(-c2ccccc2)cc1-c1ccc(Cl)cc1)CC(=O)O | 965 nM |
| CN(CCOc1ccc(-c2ccc3c(c2)CCO3)cc1-c1ccccc1Cl)CC(=O)O | 13 nM |
| CN(CCOc1ccc(-c2ccc(Cl)cc2)cc1C(=O)c1cccs1)CC(=O)O | 68 nM |
| COc1cccc(-c2ccc(OCCN(C)CC(=O)O)c(C(=O)c3cccs3)c2)c1 | 104 nM |
| COc1ccc(-c2ccc(OCCN(C)CC(=O)O)c(C(=O)c3cccs3)c2)cc1C | 18 nM |
| CN(CCOc1ccc(-c2ccccc2)cc1CC1CCCCC1)CC(=O)O | 289 nM |
| CN(CCOc1ccc(-c2ccccc2)cc1C(=O)c1cccs1)CC(=O)O | 45 nM |
| COc1ccc(-c2ccc(OCCN(C)CC(=O)O)c(-c3cccs3)c2)cc1C | 161 nM |
| CN(CCOc1ccc(-c2ccc3c(c2)OCO3)cc1-c1cccs1)CC(=O)O | 34 nM |
| CN(CCOc1ccc(C(F)(F)F)cc1C(=O)c1cccs1)CC(=O)O | 702 nM |
| CN(CCOc1ccc(-c2ccc3c(c2)OCCO3)cc1-c1cccs1)CC(=O)O | 25 nM |
| CN(CCOc1ccc(-c2ccccc2)cc1C(=O)c1ccccc1)CC(=O)O | 65 nM |
| CN(CCOc1ccc(-c2ccccc2)cc1-c1ccccc1Cl)CC(=O)O | 53 nM |

Test system: Cerebrospinal fluid
Experiment: Drug level in rat cerebrospinal fluid at 30 mg/kg, sc
Assay type: ADME, organism-based
Design: dose 30 mg/kg, route subcutaneous
Conditions: in vivo

| SMILES | Drug uptake |
| --- | --- |
| CN(CC[C@@H](Oc1ccc(-c2ccccc2)cc1)c1ccc(F)cc1)CC(=O)O | 47 ng/mL |
| CN(CCOc1ccc(-c2ccccc2)cc1-c1cccs1)CC(=O)O | 113 ng/mL |
| CN(CCOc1ccc(-c2ccccc2)cc1C(=O)c1cccs1)CC(=O)O | 15 ng/mL |
| CN(CCOc1ccc(-c2ccccc2)cc1-c1ccccc1Cl)CC(=O)O | 25 ng/mL |
